Reference: patent US20140148492A1, “BICYCLOSUBSTITUTED PYRAZOLE COMPOUNDS FOR TREATING HAIR LOSS” (Boehringer Ingelheim International GmbH, priority 2012, published 2014)

biological target: T1, human CRTH2 receptor (Homo sapiens, UniProt Q9Y5Y4); assay: CRTH2 receptor radioligand binding assay (SPA, [3H]-PGD2); conditions: displacement of [3H]-PGD2 (1 nM) from CHO-K1-hCRTH2 cell membranes, SPA format, 3 h room temperature
T1 construct: host or cells: CHO-K1 (CHO-K1-hCRTH2 cells), membranes prepared in house
T1 sequence (Q9Y5Y4 1-395): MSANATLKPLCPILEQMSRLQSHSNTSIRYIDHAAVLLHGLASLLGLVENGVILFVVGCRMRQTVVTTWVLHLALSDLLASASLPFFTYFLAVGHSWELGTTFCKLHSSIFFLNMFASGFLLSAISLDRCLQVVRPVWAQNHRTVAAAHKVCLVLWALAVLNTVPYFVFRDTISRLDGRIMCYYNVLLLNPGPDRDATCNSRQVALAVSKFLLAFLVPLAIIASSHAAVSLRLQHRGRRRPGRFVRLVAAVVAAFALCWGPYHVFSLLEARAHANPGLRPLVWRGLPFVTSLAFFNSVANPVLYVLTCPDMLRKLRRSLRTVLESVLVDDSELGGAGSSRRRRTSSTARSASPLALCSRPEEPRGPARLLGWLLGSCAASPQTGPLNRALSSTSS
Description: The binding of CRTH2 antagonists is determined using membranes prepared from Chinese hamster ovary cells (CHO-K1 cells) transfected with the human CRTH2 receptor (CHO-K1-hCRTH2 cells, Perkin Elmer, Cat No ES-561-C). To produce cell membranes the CHO-K1-hCRTH2 cells are cultured in suspension in CHO SFMII medium supplemented with 400 μg/ml G418. The cells are harvested by centrifugation at 300 g for 10 min at room temperature. The cell pellet is resuspended in Phosphate Buffer Saline (PBS) including a protease inhibitor mix (Complete, Roche) and adjusted to a concentration of 10E7 cells/ml. The CHO-K1-hCRTH2 cells are disrupted by nitrogen […] to obtain the membrane preparation. Cell debris is removed by centrifugation (500 g at 4° C., 30 min) and the supernatant is transferred into fresh tubes followed by a second centrifugation at 40000 g for 1 h at 4° C. to sediment the membranes. The membranes are suspended in SPA incubation buffer (50 mM Tris HCl, 10 mM MgCl2, 150 mM NaCl, 1 mM EDTA, pH 7.4) without bovine serum albumin, homogenized by passing through a single use needle (Terumo, 23G×1″), and stored in aliquots at −80° C.
The CRTH2 receptor binding assay is performed in a scintillation proximity assay (SPA) format with the radioligand [^3H]-PGD2 (Perkin Elmer, NET616000MC). CHO-K1-hCRTH2 cell membranes are again homogenized by passing through a single use needle (Terumo, 23G×1″) and diluted in SPA incubation buffer in suitable concentrations (0.5-10 μg protein/well). The SPA assay is set up in 96 well microtiter plates (Perkin Elmer, CatNo. 6005040) in SPA incubation buffer with a final volume of 200 μl per well and final concentration of 50 mM Tris-HCl, 10 mM MgCl2, 150 mM NaCl, 1 mM EDTA pH 7.4, 0.1% bovine serum albumin). The SPA assay mixture contains 60 μl of the membrane suspension, 80 μl of Wheat Germ Agglutinin coated PVT beads (GE Healthcare, RPNQ-0001, 0.3 mg/well), 40 μl of [3H]-PGD2 diluted in SPA buffer to a final concentration of 1 nM (50 000 dpm) and 20 μl of the test compound (dissolved in dimethylsulfoxid). The SPA assay mixture is incubated for 3 h at room temperature. Bound radioactivity is determined with a scintillation counter (Micro Beta Trilux, Wallac).
The binding of [^3H]-PGD2 to CHO-K1-hCRTH2 cell membranes is determined in the absence (total binding, Bo) and presence (non-specific binding, NSB) of unlabelled PGD2 (1 μM, Cayman Chemical, Cat No 12010) or a reference CRTH2 antagonist (10 μM CAY10471, Cayman Chemical, Cat No 10006735).
Determination of the affinity of a test compound is calculated by subtraction of the non-specific binding (NSB) from the total binding (Bo) or the binding in the presence of the test compound (B) at a given compound concentration. […] The Bo-NSB value is set to 0% inhibition.

| Ki | SMILES |
| --- | --- |
| 0.8 nM | Cc1nn(Cc2ccc(NC(=O)c3cc4ccccc4[nH]3)cc2F)c(C)c1CC(=O)O [Cmpd 1] |
| 0.8 nM | Cc1nn(Cc2ccc(NC(=O)c3oc4ccc(F)cc4c3C)cc2)c(C)c1CC(=O)O [Cmpd 4] |
| 0.8 nM | Cc1nn(Cc2ccc(NC(=O)c3cc4ccccc4o3)cc2)c(C)c1CC(=O)O [Cmpd 26] |
| 1.2 nM | CCc1c(C(=O)Nc2ccc(Cn3nc(C)c(CC(=O)O)c3C)cc2)oc2ccc(F)cc12 [Cmpd 48] |

Continued, compound first:

| SMILES | Ki |
| --- | --- |
| Cc1nn(Cc2ccc(NC(=O)c3oc4ccc(F)cc4c3C)cc2F)c(C)c1CC(=O)O [Cmpd 27] | 0.6 nM |
| CCn1c(C(=O)Nc2ccc(Cn3nc(C)c(CC(=O)O)c3C)c(F)c2)cc2cc(F)ccc21 [Cmpd 32] | 0.2 nM |
| Cc1nn(Cc2ccc(NC(=O)c3oc4ccc(Br)cc4c3C)cc2F)c(C)c1CC(=O)O [Cmpd 45] | 0.3 nM |
